“Also recorded” adds a separate entry of the source. Read-outs that look alike come from different tables or passages of the source.
Experiments:
[1] = system: L. mexicana promastigotes; test: MTT viability assay against L. mexicana promastigotes; type: cell-based, Leishmania mexicana; conditions: for L. mexicana Promastigote SI vs. Hepatocytes: CC50 HepG2 hepatocytes/IC50 L. mexicana; for IC50: 48 h; for L. mexicana Promastigote SI vs. Macrophage: CC50 RAW macrophages/IC50 L. mexicana
Description: The leishmanicidal activity against promastigotes from L. mexicana was evaluated by measuring parasites’ mitochondrial activity using the MTT (Thiazolyl Blue Tetrazolium Bromide) colorimetric assay as described previously. […] The medium was renewed every third day and subcultures were prepared when parasite density reached 1 × 10^7 parasites/mL. A Neubauer chamber was used to determine parasite density.

[2] = MTT cytotoxicity assay, murine macrophages; type: cell-based; conditions: mouse, RAW 264.7 macrophage cells, RAW 264.7, 48 h
Description: (§1) Murine macrophages (cell line RAW 264.7, ATCC® TIB-71™) were grown in Dulbecco’s Modified Eagle Medium (DMEM) (Gibco, Invitrogen, Waltham, MA, USA) supplemented with 10% fetal bovine serum (FBS) (Eurobio) and 100 IU/mL penicillin + 100 µg/mL streptomycin (Gibco), at 37 °C, in an atmosphere containing 5% CO2. Human hepatocyte cell line HepG2 (ATCC® HB-8065™) was grown in MEM (Gibco, Invitrogen) supplemented with 10% FBS (Gibco, Invitrogen), 1% NEAA (Gibco, Invitrogen), and 1% L-glutamine (Gibco, Invitrogen). The medium was renewed twice a week. For both cell lines, the viability was determined using the MTT assay as described before for leishmanicidal activity assessment, with some variations. Here, 5 × 10^4 cells/well in a final volume of 100 µL were seeded into a 96-well plate, in triplicate for RAW macrophages and in duplicate for HepG2. Saponin (2.4 mg/mL) and untreated cells were used as positive control and negative control, respectively. Compounds were dissolved in DMSO to obtain different serial concentrations (1.56 to 800 µM) for RAW macrophages and 100–0.001 µM for HepG2. The final concentration of DMSO in each well was 0.5%. After exposure to compounds for 48 h and 72 h for RAW and HepG2 cells, respectively, 10 µL/well of MTT (5 mg/mL in PBS) was added, incubated at 37 °C for 2 h in darkness, and cells were pelleted via centrifugation at 4400 rpm for 10 min. The medium was removed, and 100 µL/well of DMSO was added to dissolve formazan. The absorbance at 570 and 630 nm was recorded following the same procedure as with parasites.

[3] = MTT cytotoxicity assay, HepG2; type: cell-based; conditions: human, HepG2 cells, HepG2, 72 h, read-out: CC50 HepG2 Hepatocytes
Description: as §1

[4] = parameters: method as in PMID 34082794; conditions: ref [17]; cited from earlier work
[5] = system: bloodstream form of T. b. brucei (strain 427); test: Bioluminescence viability assay against bloodstream T. b. brucei expressing luciferase; conditions: for T. brucei SI vs. Hepatocytes: CC50 HepG2 hepatocytes/IC50 T. brucei; for T. brucei bloodstream SI vs. Macrophages: CC50 RAW macrophages/IC50 T. brucei; for activity at 10 µM / IC50: 24 h; for activity at 10 µM: read-out: T. brucei bloodstream % Growth (10 µM), 10 µM, 24 h; for anti-T. brucei activity in preliminary screening, in words: 10 µM; for SI against T. brucei, range over both mammalian cell lines: murine macrophages and HepG2 hepatocytes
[6] = system: recombinant roGFP2 biosensor; test: In vitro fluorescence assay with recombinant roGFP2 biosensor; type: biochemical; conditions: 50 µM compound, 5 µM biosensor, 1 h
Description: The His-tagged recombinant form of a roGFP2 biosensor was expressed and purified from Escherichia coli (strain C41). An overnight pre-culture (LB medium + 50 µg/mL kanamycin, 220 rpm at 37 °C) of transformed cells was diluted 1:100 in fresh 2YT medium with 50 µg/mL kanamycin, and grown at 220 rpm and 37 °C until reaching an OD600 of ~0.8. At this time point, the culture was supplemented with IPTG (end concentration 1 mM) and the incubation was extended overnight at 100 rpm, 20 °C. Cells were harvested by centrifugation at 5000× g for 10 min at 4 °C and the cell pellet was resuspended in Buffer A (50 mM sodium phosphate, pH 8.0, 300 mM NaCl) at a ratio of 5 mL buffer per gram of pellet. Lysozyme (50 mg/mL) and DNAse (15 U/mL; Roche) were added to the cell homogenate and the suspension was incubated for 1 h on ice. Next, cells were sonicated for 2 min (30 s on/off pulses at an amplitude of 40%) and the lysate was centrifuged twice at 23,000× g, 4 °C, for 1 h. The clarified supernatant was filtered (0.4 µm filter) and applied to a 5 mL HisTrap column (GE Healthcare, Chicago, IL, USA) pre-equilibrated with Buffer A. The column was washed with 15 mL of Buffer A and then with 15 mL of Buffer A + 20 mM Imidazole. The recombinant protein was eluted from the column with Buffer A + 500 mM Imidazole. The elution fractions containing the biosensor (optical observation) were pooled and buffer exchanged against Buffer A using a PD-10 column (G25-sepharose, GE Healthcare). In order to remove the His-tag, the recombinant protein was digested overnight (4 °C) using 4.5 mg/mL TEV protease in Buffer A containing 5 mM DTT and 2 mM EDTA. Finally, the digested sample was applied to a 5 mL HisTrap column pre-equilibrated with Buffer A, and the flow-through containing the un-tagged biosensor was collected. The purity of the recombinant biosensor was evaluated by SDS-PAGE, and the protein concentration estimated by measuring absorbance at 280 nm (ε^280 23.290 M^−1cm^−1) in a Nanodrop DS-11 FX device. Upon purification, the biosensor was obtained in an oxidized state, as assessed via spectrofluorimetry (see below).
For the fluorescence assays, the recombinant biosensor was used at a final concentration of 5 µM and compounds at 50 µM in Buffer A with DMSO (final concentration 1%). DTT was added at 10 mM for achieving full biosensor reduction. Fluorescence spectra ([…] and emission) were recorded using a Cary Eclipse equipment. […]

[7] = system: hGrx1-roGFP2 redox biosensor in bloodstream T. brucei brucei; test: In-cell redox assay with hGrx1-roGFP2 biosensor (flow cytometry); conditions: compound at its IC50, 1 h; for intracellular biosensor oxidation: relative to diamide (full oxidation) and DTT (reduction)
bloodstream T. b. brucei = test: Microscopic observation of cell motility; type: cell-based, Trypanosoma brucei brucei; conditions: 0.9 µM, 24 h, vs vehicle-treated parasites
[8] = system: Human hepatocyte cell line HepG2; conditions: read-out: CC50 HepG2 Hepatocytes, ref [47]; cited from earlier work
[9] = Leishmania mexicana, read-out: L. mexicana Promastigote IC50, promastigotes, 48 h, MTT
[10] = Trypanosoma brucei, read-out: T. brucei bloodstream IC50, 24 h, bioluminescence
[11] = read-out: T. brucei bloodstream IC50, bioluminescence
[12] = read-out: L. mexicana Promastigote IC50, promastigotes, MTT

With `Cc1nn(-c2ccccc2)c(O)c1C(c1ccc(O)c(O)c1)c1c(C)nn(-c2ccccc2)c1O` [Compound 2n] the “L. mexicana Promastigote SI vs. Hepatocytes” value [1] was greater than 14.3, the IC50 [1, 9] was 7 ± 1 µM and the CC50 at 48 h [2] was 70 ± 7 µM. The CC50 at 72 h [3] was greater than 100 µM, the “radical scavenging activity relative to ascorbic acid” value [4] was “higher” and the “T. brucei SI vs. Hepatocytes” value [5] was greater than 9.8. For the same compound, the “T. brucei bloodstream SI vs. Macrophages” value [5] was 7, the activity at 10 µM ([5]; Trypanosoma brucei) was no more than 50% and the IC50 [5, 10] was 10 µM. For the same compound, the IC50 [5, 11] was 10.2 ± 1.75 µM.

In the case of `Cc1nn(-c2ccccc2)c(O)c1C(c1ccc(C(F)(F)F)cc1)c1c(C)nn(-c2ccccc2)c1O` [Compound 2r], the “L. mexicana Promastigote SI vs. Hepatocytes” value [1] is reported as 6.1, the “L. mexicana Promastigote SI vs. Macrophage” value [1] is reported as 16.4 and the CC50 at 48 h [2] is reported as 54 ± 3 µM. For the same compound, the CC50 at 72 h [3] was 20 ± 4 µM, the “direct oxidation of the reduced recombinant biosensor” value [6] was “did not induce direct oxidation” and the “prevention of biosensor oxidation (oxidized form)” value (“prevention of biosensor oxidation” below) [6] was 11–13%. The “radical scavenging activity relative to ascorbic acid” value [4] was “higher”, the intracellular biosensor oxidation [7] was 56% and the “biosensor oxidation vs. DMSO” value [7] was 23%. The “T. brucei SI vs. Hepatocytes” value [5] was 2.0, the “T. brucei bloodstream SI vs. Macrophages” value [5] was 5.4 and the activity at 10 µM ([5]; Trypanosoma brucei) was no more than 50%. The IC50 [5, 10] was 10 ± 3 µM.

For `Cc1nn(-c2ccccc2)c(O)c1C(c1cccc(F)c1)c1c(C)nn(-c2ccccc2)c1O` [Compound 2t], the “L. mexicana Promastigote SI vs. Hepatocytes” value [1] was 1.8, the “L. mexicana Promastigote SI vs. Macrophage” value [1] was 10.5 and the IC50 [1, 9] was 11 ± 1 µM. The CC50 at 48 h [2] was 115 ± 21 µM, the CC50 at 72 h [3] was 20 ± 11 µM and the melting point was 178 to 179 °C. For the same compound, the “anti-T. brucei activity in preliminary screening, in words” value (“anti-T. brucei activity” for short) [5] was “inactive” and the activity at 10 µM ([5]; Trypanosoma brucei) was greater than 100%.

For `CSc1ccc(C(c2c(C)nn(-c3ccccc3)c2O)c2c(C)nn(-c3ccccc3)c2O)cc1` [Compound 2u], the “L. mexicana Promastigote SI vs. Hepatocytes” value [1] was 0.7, the “L. mexicana Promastigote SI vs. Macrophage” value [1] was 3.2 and the IC50 [1, 9] was 30 ± 10 µM. The CC50 at 48 h [2] was 96 ± 27 µM, the CC50 at 72 h [3] was 21 ± 10 µM and the melting point was 209.1 to 211.3 °C. The “anti-T. brucei activity” value [5] was “inactive” and the activity at 10 µM ([5]; Trypanosoma brucei) was greater than 100%.

For `Cc1nn(-c2ccccc2)c(O)c1C(c1ccccc1C(F)(F)F)c1c(C)nn(-c2ccccc2)c1O` [Compound 2v, 4,4′-[(2-trifluoromethylphenyl)methylene]bis(3-methyl-1-phenyl-1H-pyrazol-5-ol)], the “L. mexicana Promastigote SI vs. Hepatocytes” value [1] was 3.5, the “L. mexicana Promastigote SI vs. Macrophage” value [1] was 15.1 and the IC50 [1, 9] was no more than 10 µM. It also gave an IC50 [1, 12] of 6 ± 1 µM, a CC50 at 48 h [2] of 91 ± 18 µM and a CC50 at 72 h [3] of 21 ± 2 µM. For the same compound, the melting point was 245 to 248 °C and the “anti-T. brucei activity” value [5] was “inactive; also recorded: lacked activity”.

In the case of `Cc1nn(-c2ccccc2)c(O)c1C(c1cccc(C(F)(F)F)c1)c1c(C)nn(-c2ccccc2)c1O` [Compound 2w, 4,4′-[(3-trifluoromethylphenyl)methylene]bis(3-methyl-1-phenyl-1H-pyrazol-5-ol)], the “L. mexicana Promastigote SI vs. Hepatocytes” value [1] is reported as 6.5, the “L. mexicana Promastigote SI vs. Macrophage” value [1] is reported as 15.2 and the CC50 at 48 h [2] is reported as 61 ± 4 µM. The CC50 at 72 h [3] was 26 ± 3 µM, the “direct oxidation of the reduced recombinant biosensor” value [6] was “did not induce direct oxidation” and the “prevention of biosensor oxidation” value [6] was 11–13%. The intracellular biosensor oxidation [7] was 63%, the “biosensor oxidation vs. DMSO” value [7] was 30% and the “T. brucei SI vs. Hepatocytes” value [5] was 2.9. For the same compound, the “T. brucei bloodstream SI vs. Macrophages” value [5] was 6.8, the activity at 10 µM ([5]; Trypanosoma brucei) was no more than 50% and the IC50 [5, 10] was 9 µM. For the same compound, the IC50 [5, 11] was 8.9 ± 0.7 µM.

For `Cc1nn(-c2ccccc2)c(O)c1C(c1cc(C(F)(F)F)cc(C(F)(F)F)c1)c1c(C)nn(-c2ccccc2)c1O` [Compound 2x, 4,4′-{[3,5-bis(trifluoromethyl)phenyl]methylene}bis(3-methyl-1-phenyl-1H-pyrazol-5-ol)], the “L. mexicana Promastigote SI vs. Hepatocytes” value [1] was 4.3, the “L. mexicana Promastigote SI vs. Macrophage” value [1] was 4.8 and the IC50 [1, 9] was no more than 10 µM. The IC50 [1, 12] was 7 ± 2 µM, the CC50 at 48 h [2] was 34 ± 5 µM and the CC50 at 72 h [3] was 30 ± 2 µM. For the same compound, the “direct oxidation of the reduced recombinant biosensor” value [6] was “did not induce direct oxidation”, the “prevention of biosensor oxidation” value [6] was 11–13% and the intracellular biosensor oxidation [7] was 95%. The “biosensor oxidation vs. DMSO” value [7] was 63%, the “T. brucei SI vs. Hepatocytes” value [5] was 16 and the “T. brucei bloodstream SI vs. Macrophages” value [5] was 18. The IC50 [5, 10] was 1.9 ± 0.9 µM and the “SI against T. brucei, range over both mammalian cell lines” value [5] was 11.6–18.

Compound `Cc1nn(-c2ccccc2)c(O)c1C(c1ccc(O)cc1O)c1c(C)nn(-c2ccccc2)c1O` [Compound 2y, 4,4′-[(2,4-dihydroxyphenyl)methylene]bis(3-methyl-1-phenyl-1H-pyrazol-5-ol)] has an IC50 [1, 9] greater than 50 µM, a CC50 at 48 h [2] of 170 ± 1 µM and a CC50 at 72 h [3] greater than 100 µM. For the same compound, the “cell motility by microscopic observation” value (bloodstream T. b. brucei) was “did not reveal an impairment of cell motility”, the “T. brucei SI vs. Hepatocytes” value [5] was greater than 111 and the “T. brucei bloodstream SI vs. Macrophages” value [5] was 189. For the same compound, the IC50 [5, 10] was 0.9 ± 0.2 µM.

In the case of `CC1CS(=O)(=O)CCN1/N=C/c1ccc([N+](=O)[O-])o1` (centres unmarked) [Nifurtimox, reference compound], the CC50 at 48 h [2] is given as greater than 100 µM, the CC50 [8] is given as 45 ± 1 µM and the “T. brucei SI vs. Hepatocytes” value [5] is given as 13. For the same compound, the IC50 [5, 10] was 3.5 µM and the “SI against T. brucei, range over both mammalian cell lines” value [5] was 13–28.5.

From paper PMC9405596, “Evaluation of the Anti-Leishmania mexicana and -Trypanosoma brucei Activity and Mode of Action of 4,4′-(Arylmethylene)bis(3-methyl-1-phenyl-1H-pyrazol-5-ol)” (Biomedicines, 2022)
